The molecules below were run against T1, Lp-PLA2 (Homo sapiens, UniProt Q13093) (assay: Lipoprotein-associated phospholipase A2 (Lp-PLA2) human plasma assay (Thio-PAF assay)). Details: Comparison of activity data (I); pooled human plasma, 2-thio-PAF substrate, 30-min pre-incubation.
T1 construct: aliquoted and thawed 40 μL of pooled human plasma was previously added; from tissue; host or cells: pooled human plasma
T1 sequence (Q13093 22-441): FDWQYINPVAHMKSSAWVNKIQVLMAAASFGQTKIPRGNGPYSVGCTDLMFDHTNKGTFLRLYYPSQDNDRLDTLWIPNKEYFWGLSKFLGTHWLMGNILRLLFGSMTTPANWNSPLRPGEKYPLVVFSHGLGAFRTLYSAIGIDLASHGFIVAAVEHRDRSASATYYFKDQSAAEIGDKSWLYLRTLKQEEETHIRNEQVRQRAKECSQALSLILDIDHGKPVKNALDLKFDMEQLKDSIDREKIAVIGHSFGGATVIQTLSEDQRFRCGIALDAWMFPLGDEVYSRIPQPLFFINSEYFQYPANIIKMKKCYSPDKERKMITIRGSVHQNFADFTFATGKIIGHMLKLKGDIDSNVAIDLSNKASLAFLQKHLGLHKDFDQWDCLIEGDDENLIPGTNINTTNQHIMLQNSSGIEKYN
Assay type: biochemical

| SMILES | IC50 |
| --- | --- |
| CC12COCCN1c1cc(OCc3cc(F)c(F)c(F)c3)nc(=O)n1C2 (stereo not shown) [Example 86] | 6.1 nM |

Same assay, conditions: Lp-PLA2 human plasma assay (Thio-PAF), pooled human plasma, 30-min pre-incubation at room temperature

| SMILES | IC50 |
| --- | --- |
| O=c1nc(OCc2cc(F)c(Oc3cccc(F)c3)c(F)c2)cc2n1C[C@]13CO[C@H](CN21)C3 [Example 137] | 5.8 nM |
| O=c1nc(OCc2ccc(Oc3ccnc(C(F)(F)F)c3)c(F)c2)cc2n1CC13CC(CN21)C3 [Example 113, 3-((3-fluoro-4-((2-(trifluoromethyl)pyridin-4-yl)oxy)benzyl)oxy)-7,8-dihydro-1H,6H,9H-7,8a-methanopyrrolo[1′,2′:3,4] imidazo[1,2-c]pyrimidin-1-one] | 5.7 nM |
| O=c1nc(OCc2ccc(Oc3ccc(C(F)(F)F)nc3)c(F)c2)cc2n1CC13CC(CN21)C3 [Example 117, 3-((3-fluoro-4-((6-(trifluoromethyl)pyridin-3-yl)oxy)benzyl)oxy)-7,8-dihydro-1H,6H,9H-7,8a-methanopyrrolo[1′,2′:3,4] imidazo[1,2-c]pyrimidin-1-one] | 9.1 nM |
| O=c1nc(OCc2cc(F)c(Oc3ccc(C(F)(F)F)nc3)c(F)c2)cc2n1C[C@]13CO[C@H](CN21)C3 [Example 9] | 6.5 nM |
| O=c1nc(OCc2cc(F)c(Oc3ccnc(C(F)(F)F)c3)c(F)c2)cc2n1CC13CCC(CC1)N23 [Example 46, 3-((3,5-difluoro-4-((2-(trifluoromethyl)pyridin-4-yl)oxy)benzyl)oxy)-7,8-dihydro-1H,6H,9H-6,8a-ethanopyrrolo[1′,2′:3,4] imidazo[1,2-c]pyrimidin-1-one] | 15.3 nM |
| O=c1nc(OCCc2ccc(F)c(F)c2)cc2n1C[C@]13CO[C@H](CN21)C3 [Example 195, (3S,11aR)-7-(3,4-difluorophenethoxy)-3,4-dihydro-1H,9H,11H-3,11a-methano-pyrimido[6′,1′:2,3]imidazo[5,1-c][l,4]oxazin-9-one] | 62.7 nM |
| O=c1nc(OCCc2cc(F)c(Oc3ccnc(C(F)(F)F)c3)c(F)c2)cc2n1CC13CC(CN21)C3 [Example 169, 3-(3,5-Difluoro-4-((2-(trifluoromethyl)pyridin-4-yl)oxy)phenethoxy)-7,8-dihydro-1H1,6H1,9H-7,8a-methanopyrrolo[1′, 2′:3, 4]imidazo[1,2-c]pyrimidin-1-one] | 4.9 nM |
| O=c1nc(OCc2ccc(Oc3cccc(C(F)(F)F)c3)c(F)c2)cc2n1C[C@]13CO[C@H](CN21)C3 [Example 192] | 6.3 nM |
| CC12CCCN1c1cc(OCc3cc(F)c(Oc4cnc(C(F)(F)F)nc4)c(F)c3)nc(=O)n1C2 (stereo not shown) [Example 56, 3-((3,5-difluoro-4-((2-(trifluoromethyl)pyrimidin-5-yl)oxy)benzyl)oxy)-8a-methyl-7,8,8a,9-tetrahydro-1H,6H-pyrrolo[1′,2′:3,4]imidazo [1,2-c]pyrimidin-1-one] | 7.7 nM |
| CCc1c(OCc2cc(F)c(Oc3ccnc(C(F)(F)F)c3)c(F)c2)nc(=O)n2c1N1C[C@@H]3C[C@]1(CO3)C2 [Example 104, (3S,11aR)-7-((3,5-difluoro-4-((2-(trifluoromethyl)pyridin-4-yl)oxy)benzyl)oxy)-6-ethyl-3,4-dihydro-1H,9H,11H-3,11a-methanopyrimido[6′,1′:2,3] imidazo[5,1-c][1,4]oxazin-9-one] | 8.6 nM |
| O=c1nc(OCc2ccc(Oc3ccc(C(F)(F)F)cc3)c(F)c2)cc2n1CC13CCC(CC1)N23 [Example 130, 3-((3-fluoro-4-(4-(trifluoromethyl)phenoxy)benzyl)oxy)-7,8-dihydro-1H,6H,9H-6,8a-ethanopyrrolo[1′,2′:3,4] imidazo[1,2-c]pyrimidin-1-one] | 4.8 nM |
| CC12COCCN1c1cc(OCc3cc(F)c(F)c(F)c3)nc(=O)n1C2 (stereo not shown) [Example 86] | 6.1 nM |
| O=C1N(CC23CC(C2)C3)[C@@H]2CN3c4cc(OCc5ccc(Oc6ccnc(C(F)(F)F)c6)c(F)c5)nc(=O)n4C[C@]13C2 [Example 198, (3S,11aR)-2-(bicyclo[1.1.1]pent-1-ylmethyl)-7-((3-fluoro-4-((2-(trifluoromethyl)pyridin-4-yl)oxy)benzyl)oxy)-3,4-dihydro-9H,11H-3,11a-methanopyrazino[1′,2′:3,4]imidazo [1,2-c]pyrimidin-1,9(2H)-dione] | 5.1 nM |
| O=c1nc(OCc2cc(F)c(Oc3ccc(Cl)c(C(F)(F)F)c3)c(F)c2)cc2n1C[C@]13CO[C@H](CN21)C3 [Example 4, (3S,11aR)-7-((4-(4-chloro-3-(trifluoromethyl)phenoxy)-3,5-difluorobenzyl)oxy)-3,4-dihydro-1H,9H,11H-3,11a-methanopyrimido[6′-,1′:2,3] imidazo[5,1-c][1,4]oxazin-9-one] | 2.5 nM |
| N#Cc1cc(Oc2ccc(COc3cc4n(c(=O)n3)C[C@@]35CO[C@@H](CN43)C5)cc2F)cc(C(F)(F)F)c1 [Example 31] | 7.1 nM |
| CCC12CCCCN1c1cc(OCc3cc(F)c(Oc4ccc(C(F)(F)F)nc4)c(F)c3)nc(=O)n1C2 (stereo not shown) [Example 76, 3-((3,5-difluoro-4-((6-(trifluoromethyl)pyridin-3-yl)oxy)benzyl)oxy)-9a-ethyl-6,7,8,9,9a,10-hexahydro-1H-pyrido[1′,2′:3,4]imidazo [1,2-c]pyrimidin-1-one] | 42.2 nM |
| COc1c(OCc2cc(F)c(Oc3ccnc(C(F)(F)F)c3)c(F)c2)nc(=O)n2c1N1C[C@@H]3C[C@]1(CO3)C2 [Example 106, (3S,11aR)-7-((3,5-difluoro-4-((2-(trifluoromethyl)pyridin-4-yl)oxy)benzyl)oxy)-6-methoxy-3,4-dihydro-1H,9H,11H-3,11a-methanopyrimido[6′,1′:2,3] imidazo[5,1-c][1,4]oxazin-9-one] | 1 nM |
| O=c1nc(OCc2cc(F)c(Oc3cccc(C(F)F)c3)c(F)c2)cc2n1C[C@]13CO[C@H](CN21)C3 [Example 179] | 4.1 nM |
| O=c1nc(OCc2cc(F)c(Oc3ccnc(OC(F)(F)F)c3)c(F)c2)cc2n1C[C@]13CO[C@H](CN21)C3 [Example 5, (3S,11aR)-7-((3,5-difluoro-4-((2-(trifluoromethoxy)pyridin-4-yl)oxy)benzyl)oxy)-3,4-dihydro-1H,9H,11H-3,11a-methanopyrimido[6′,1′:2,3] imidazo[5,1-c][1,4]oxazin-9-one] | 4.2 nM |
| CC12CCCCN1c1cc(OCCc3ccc(Oc4ccc(Cl)c(C(F)(F)F)c4)cc3)nc(=O)n1C2 (stereo not shown) [Example 73, 3-(4-(4-chloro-3-(trifluoromethyl)phenoxy)phenethoxy)-9a-methyl-6,7,8,9,9a,10-hexahydro-1H-pyrido[1′,2′:3,4]imidazo [1,2-c]pyrimidin-1-one] | 4.8 nM |
| Cn1cc(Oc2c(F)cc(COc3cc4n(c(=O)n3)CC3(C)CCCCN43)cc2F)cn1 (stereo not shown) [Example 68, 3-((3,5-difluoro-4-((1-methyl-1H-pyrazol-4-yl)oxy)benzyl)oxy)-9a-methyl-6,7,8,9,9a,10-hexahydro-1H-pyrido[1′,2′:3,4]imidazo [1,2-c]pyrimidin-1-one] | 50 nM |
| O=c1nc(OCc2cc(F)c(F)c(F)c2)cc2n1CC13CC(CN21)C3 [Example 98, 3-((3,4,5-trifluorobenzyl)oxy)-7,8-dihydro-1H,6H,9H-7,8a-methanopyrrolo[1′,2′:3,4] imidazo[1,2-c]pyrimidin-1-one] | 30.2 nM |
| CC12CCCCN1c1cc(OCc3ccc(Oc4ccc(Cl)c(F)c4)c(C#N)c3)nc(=O)n1C2 (stereo not shown) [Example 72, 2-(4-chloro-3-fluorophenoxy)-5-(((-9a-methyl-1-oxo-6,7,8,9,9a,10-hexahydro-1H-pyrido[1′,2′:3,4]imidazo [1,2-c]pyrimidin-3-yl)oxy)methyl)benzonitrile] | 7.6 nM |
| N#Cc1cc(COc2cc3n(c(=O)n2)CC24CC(CN32)C4)ccc1Oc1cccc(C(F)(F)F)c1 [Example 42] | 4.9 nM |
| CC(C)c1c(OCc2cc(F)c(Oc3ccnc(C(F)(F)F)c3)c(F)c2)nc(=O)n2c1N1C[C@@H]3C[C@]1(CO3)C2 [Example 107, (3S,11aR)-7-((3,5-difluoro-4-((2-(trifluoromethyl)pyridin-4-yl)oxy)benzyl)oxy)-6-isopropyl-3,4-dihydro-1H,9H,11H-3,11a-methanopyrimido[6′,1′:2,3] imidazo[5,1-c][1,4]oxazin-9-one] | 9.5 nM |
| O=c1nc(OCc2ccc(Oc3ccc(Cl)c(C(F)(F)F)c3)cc2)cc2n1C[C@]13CO[C@H](CN21)C3 [Example 16, (3S,11aR)-7-((4-(4-chloro-3-(trifluoromethyl)phenoxy)benzyl)oxy)-3,4-dihydro-1H,9H,11H-3,11a-methanopyrimido[6′,1′:2,3] imidazo[5,1-c][1,4]oxazin-9-one] | 5.2 nM |
| N#Cc1cc(F)cc(COc2cc3n(c(=O)n2)CC24CC(F)(CN32)C4)c1 [Example 159] | 128 nM |
| COc1c(OCc2ccc(Oc3ccnc(C(F)F)c3)c(F)c2)nc(=O)n2c1N1CC3CC1(C3)C2 [Example 140, 3-((4-((2-(difluoromethyl)pyridin-4-yl)oxy)-3-fluorobenzyl)oxy)-4-methoxy-7,8-dihydro-1H,6H,9H-7,8a-methanopyrrolo[1′,2′:3,4] imidazo[1,2-c]pyrimidin-1-one] | 3.9 nM |
| N#Cc1cc(COc2cc3n(c(=O)n2)CC24CCC(CC2)N34)ccc1Oc1ccnc(C(F)(F)F)c1 [Example 51] | 3.3 nM |
| Cc1cc(Oc2c(F)cc(COc3nc(=O)n4c(c3F)N3C[C@@H]5C[C@]3(CO5)C4)cc2F)ccn1 [Example 89, (3S,11aR)-7-((3,5-difluoro-4-((2-methyl-pyridin-4-yl)oxy)benzyl)oxy)-6-fluoro-3,4-dihydro-1H,9H,11H-3,11a-methanopyrimido[6′,1′:2,3] imidazo[5,1-c][1,4]oxazin-9-one] | 10.9 nM |
